According to US4393050A, “Analogs of extended N-terminal somatostatin” (The Salk Institute for Biological Studies, priority 1981, dated 1983):
Like-named read-outs stand apart in the source and are kept apart here. Residues, ends and D or L forms follow the SMILES beside them.

Columns and labels:
[1] = tested on: glucagon secretion; format: in vivo, rats
Experimental: (§1) In vivo experiments are carried out with the SS-28 analogs, using the procedure described in Brown et al., Metabolism (1976) Vol. 25, pp. 1501-1503, to determine the potency, relative to somatostatin-14 to inhibit the secretion of glucagon and insulin stimulated by the administration of arginine to groups of six rats.

[2] = tested on: insulin secretion; format: in vivo, rats
Experimental: as §1

[3] = tested on: cells of rat pituitary glands; format: cell-based
Experimental: To determine the effectiveness of the peptides to inhibit the release of growth hormone, in vitro radioimmunoassays are carried out using the SS-28 analogs in side-by-side comparison with equimolar concentrations of somotostatin-14 having a known effectiveness to inhibit the release of growth hormone induced by the application of isobutyl methyl xanthine to pituitary cells. Cultures are used which include cells of rat pituitary glands removed some four to five days previously in a system that minimizes enzymatic degradation, generally following the procedure set forth in Vale et al., Methods in Enzymology, Hormones and Cyclic Nucleotides (1975) Vol. 37, p. 82. Both cultures of a defined standard medium and cultures which are considered optimal for the secretion of growth hormone, as a result of having additions of either 2% or 10% of serum from a foetal calf, are used for the comparative testing.

[4] = juvenile-type diabetics, complete absence of circulating insulin; cited from earlier work
[5] = rats, arginine-stimulated secretion, SS-14 = 1

| Structure (SMILES) | In Vivo Glugacon (potency to inhibit secretion, relative to SS-14) ([1]; rat, in vivo) | In Vivo Insulin (potency to inhibit secretion, relative to SS-14) ([2]; rat, in vivo) | In Vitro Growth Hormone (potency to inhibit release, relative to SS-14) [3] | In Vivo Glugacon (potency to inhibit secretion, relative to SS-14) [1, 5] | In Vivo Insulin (potency to inhibit secretion, relative to SS-14) [2, 5] | diminution of fasting hyperglycemia [4] [%] | In Vitro Growth Hormone (potency to inhibit release, relative to SS-14) ([3]; rat pituitary cell cultures, isobutyl methyl xanthine-induced GH release, SS-14 = 1) |
| --- | --- | --- | --- | --- | --- | --- | --- |
| CSCC[C@H](NC(=O)[C@H](C)NC(=O)[C@@H]1CCCN1C(=O)[C@H](CC(N)=O)NC(=O)[C@H](CO)NC(=O)[C@H](CC(N)=O)NC(=O)[C@H](C)NC(=O)[C@@H](N)CO)C(=O)N[C@@H](C)C(=O)N1CCC[C@H]1C(=O)N[C@@H](CCCNC(=N)N)C(=O)N[C@@H](CCC(=O)O)C(=O)N[C@@H](CCCNC(=N)N)C(=O)N[C@@H](CCCCN)C(=O)N[C@@H](C)C(=O)NCC(=O)N[C@H]1CSSC[C@H](C(=O)O)NC(=O)[C@H](CO)NC(=O)[C@H](Cc2ccccc2)NC(=O)[C@H]([C@@H](C)O)NC(=O)[C@H](CCCCN)NC(=O)[C@@H](Cc2c[nH]c3ccccc23)NC(=O)[C@H](Cc2ccccc2)NC(=O)[C@H](Cc2ccccc2)NC1=O [Peptide 4, desAA^18,19,26 [D-Trp^22,D-Cys^28]--SS-28] (HELM PEPTIDE1{S.A.N.S.N.P.A.M.A.P.R.E.R.K.A.G.C.F.F.[dW].K.T.F.S.[dC]}$PEPTIDE1,PEPTIDE1,17:R3-25:R3$$$V2.0) | 14 | 18 | 1.51 |  |  |  |  |
| CSCC[C@H](NC(=O)[C@H](C)NC(=O)[C@@H]1CCCN1C(=O)[C@H](CC(N)=O)NC(=O)[C@H](CO)NC(=O)[C@H](CC(N)=O)NC(=O)[C@H](C)NC(=O)[C@@H](N)CO)C(=O)N[C@@H](C)C(=O)N1CCC[C@H]1C(=O)N[C@@H](CCCNC(=N)N)C(=O)N[C@@H](CCC(=O)O)C(=O)N[C@@H](CCCNC(=N)N)C(=O)N[C@@H](CCCCN)C(=O)N[C@@H](C)C(=O)NCC(=O)N[C@H]1CSSC[C@@H](C(=O)O)NC(=O)[C@@H](CO)NC(=O)[C@H]([C@@H](C)O)NC(=O)[C@H](Cc2ccccc2)NC(=O)[C@H]([C@@H](C)O)NC(=O)[C@H](CCCCN)NC(=O)[C@@H](Cc2c[nH]c3ccccc23)NC(=O)[C@H](Cc2ccccc2)NC(=O)[C@H](Cc2ccccc2)NC(=O)[C@H](CCCCN)NC1=O [Peptide 3, desAsn^19 [D-Trp^22, D-Ser^27]--SS-28] (HELM PEPTIDE1{S.A.N.S.N.P.A.M.A.P.R.E.R.K.A.G.C.K.F.F.[dW].K.T.F.T.[dS].C}$PEPTIDE1,PEPTIDE1,17:R3-27:R3$$$V2.0) | 1 | 145 | 0.1 |  |  |  |  |
| CC(C)C[C@H](NC(=O)[C@H](C)NC(=O)[C@@H]1CCCN1C(=O)[C@H](CC(N)=O)NC(=O)[C@H](CO)NC(=O)[C@H](CC(N)=O)NC(=O)[C@H](C)NC(=O)[C@@H](N)CO)C(=O)N[C@@H](C)C(=O)N1CCC[C@H]1C(=O)N[C@@H](CCCNC(=N)N)C(=O)N[C@@H](CCC(=O)O)C(=O)N[C@@H](CCCNC(=N)N)C(=O)N[C@@H](CCCCN)C(=O)N[C@@H](C)C(=O)NCC(=O)N[C@H]1CSSC[C@@H](C(=O)O)NC(=O)[C@H](CO)NC(=O)[C@H]([C@@H](C)O)NC(=O)[C@H](Cc2ccc(O)cc2)NC(=O)[C@H]([C@@H](C)O)NC(=O)[C@H](CCCCN)NC(=O)[C@@H](Cc2c[nH]c3ccccc23)NC(=O)[C@H](Cc2ccccc2)NC(=O)[C@H](Cc2ccccc2)NC(=O)[C@H](CC(N)=O)NC(=O)[C@H](CCCCN)NC1=O [Peptide 1, [Leu^8, D-Trp^22, Tyr^25]--SS-28] (HELM PEPTIDE1{S.A.N.S.N.P.A.L.A.P.R.E.R.K.A.G.C.K.N.F.F.[dW].K.T.Y.T.S.C}$PEPTIDE1,PEPTIDE1,17:R3-28:R3$$$V2.0) |  |  | 4.84 |  |  |  |  |
| C[C@H](N)C(=O)NCC(=O)N[C@H]1CSSC[C@@H](C(=O)O)NC(=O)[C@H](CO)NC(=O)[C@H]([C@@H](C)O)NC(=O)[C@H](Cc2ccccc2)NC(=O)[C@H]([C@@H](C)O)NC(=O)[C@H](CCCCN)NC(=O)[C@H](Cc2c[nH]c3ccccc23)NC(=O)[C@H](Cc2ccccc2)NC(=O)[C@H](Cc2ccccc2)NC(=O)[C@H](CC(N)=O)NC(=O)[C@H](CCCCN)NC1=O [SS-14, somatostatin] |  |  |  | 1 | 1 | ≤ 50 | 1 |
